≈ marks a conversion by molar mass, not a printed value.
How the values were obtained:
E. Coli. = experiment: Minimum inhibitory concentration (MIC), E. coli; assay type: cell-based; settings: range of concentration, 20-24 hours at 37° C., A595; for MIC: Escherichia coli
Description: (§1) The assays are carried out in 150 μL volume in duplicate in 96-well clear flat-bottom plates. The bacterial suspension from an overnight culture growth in appropriate medium is added to a solution of test compound in 2.5% DMSO in water. Final bacterial inoculum is approximately 10^2-10^3 CFU/well. The percentage growth of the bacteria in test wells relative to that observed for a control wells containing no compound is determined by measuring absorbance at 595 nm (A595) after 20-24 hours at 37° C. The MIC is determined as a range of concentration where complete inhibition of growth is observed at the higher concentration and bacterial cells are viable at the lower concentration. Both ampicillin and tetracycline are used as antibiotic positive controls in each screening assay.

S. Aureus = experiment: Minimum inhibitory concentration (MIC), S. aureus; assay type: cell-based; settings: range of concentration, 20-24 hours at 37° C., A595; for MIC: Staphylococcus aureus
Description: as §1

18S = 18S Kd by FTICR mass spectrometry; assay type: binding
Description: (§2) Was performed according to the published report; […]-Lowery, […].; Mohan, […]. et al. Characterization of Low Affinity Complexes Between RNA and Small Molecules Using Electrospray Ionization Mass Spectrometry. J. Am. Chem. […] Screening is performed by measuring the formation of non-covalent complexes between a single ligand or ligand mixture and the appropriate RNA target, along with suitable control structured RNA target(s) simultaneously using a 9.4 T FT-ICR mass spectrometer as detector. Full experimental details of the assay have been described in related literature ([…]-Lowery, et al. in TrAC, Trends Anal. […] The abundances were integrated from the respective ions for free RNA and the ligand-RNA complex. […] The peak ratios are measured at each concentration, then a plot of complex/free RNA versus concentration of ligand added is fitted to a second (or higher) order binding polynomial to determine the KD.

16S = experiment: Measurement of 16S Kd by FTICR mass spectrometry; assay type: binding
Description: as §2

[1] = system: E. coli S30 bacterial extract (pBest Luc luciferase transcription/translation); experiment: Coupled bacterial transcription/translation assay (T/T); assay type: biochemical; settings: luciferase reporter, 35 minutes at 37° C., read-out: Trans/Trans IC50
Description: The DNA template, pBest Luc™ (Promega), is a plasmid containing a reporter gene for firefly luciferase fused to a strong tac promoter and ribosome binding site. Messenger RNA from 1 μg pBestLuc was transcribed and translated in E. coli S30 bacterial extract in the presence or absence of test compound. Compounds were tested in a black 96 well microtiter plate with an assay volume of […]. Each test well contained: 5 μL test compound, 13 μL S30 premix (Promega), 4 μL 10× complete amino acid mix (1 mM each), 5 μL E. coli S30 extract and 8 μL of 0.125 μg/μL pBest Luc™. The transcription/translation reaction was incubated for 35 minutes at 37° C. followed by detection of functional luciferase with the addition of 30 μL LucLite™ (Packard). Light output was quantitated on a Packard TopCount.

[2] = system: Staphylococcus aureus (Smith strain ATCC 13709); experiment: Staphylococcus aureus mouse protection assay; assay type: in vivo; settings: Staph conc. 10^6 IP in 10% mucin, treatments at 1 hour and 3 hour post infection
Description: Two of the novel aminoglycoside compounds of the invention were examined for their anitbacterial activity against staphylococcus aureus. The mice were infected IP with 0.5 ml […] staphylococcus aureus in 10% mucin. There were 10 mice in each treated group with treatments at 1 hour and 3 hour post infection. The Ibis compounds (IBIS00561085 R4═R5═CH3 and IBIS00561141 R4═H, R5═(CH2)2C6H5) were used at 75 mg/kg, 37.5 mg/kg, 18.8 mg/kg, 9.4 mg/kg, 4.7 mg/kg, 2.3 mg/kg, 1.17 mg/kg and 0.5 mg/kg. Amakacin, Paromomycin and Neomycin were used as the positive controls at concentration of 2 mg/kg, 1 mg/kg and 0.5 mg/kg.

Compound	MIC E. Coli. (E. Coli.) [µM]	MIC S. Aureus (S. Aureus) [µM]	MIC (E. Coli.) [µM]	MIC (S. Aureus) [µM]	Kd (18S) [nM]	Kd (16S) [nM]	IC50 [1] [nM]	further results
Cc1ccc(CCNC[C@H]2O[C@H](O[C@H]3[C@H](O[C@@H]4O[C@H](CO)[C@@H](O[C@H]5O[C@@H](CN)[C@@H](O)[C@H](O)[C@H]5N)[C@H]4O)[C@@H](O)[C@H](N)C[C@@H]3N)[C@H](N)[C@@H](O)[C@@H]2O)cc1 [IBIS00561930]	2.5 to 5.0	0.6 to 1.2	–	–	–	–	–	–
NC[C@@H]1O[C@H](O[C@H]2[C@@H](O)[C@H](O[C@@H]3[C@@H](O)[C@H](N)C[C@H](N)[C@H]3O[C@H]3O[C@H](CN4CCC5CCCCC54)[C@@H](O)[C@H](O)[C@H]3N)O[C@@H]2CO)[C@H](N)[C@@H](O)[C@@H]1O (stereo partly drawn) [IBIS00561939]	–	–	1.25 to 2.5 (≈ 0.904 to 1.81 µg/mL)	0.31 to 0.62 (≈ 0.224 to 0.448 µg/mL)	–	–	–	–
COc1ccc(CCNC[C@H]2O[C@H](O[C@H]3[C@H](O[C@@H]4O[C@H](CO)[C@@H](O[C@H]5O[C@@H](CN)[C@@H](O)[C@H](O)[C@H]5N)[C@H]4O)[C@@H](O)[C@H](N)C[C@@H]3N)[C@H](N)[C@@H](O)[C@@H]2O)cc1 [IBIS00561933]	–	–	1.25 to 2.5 (≈ 0.936 to 1.87 µg/mL)	0.31 to 0.62 (≈ 0.232 to 0.464 µg/mL)	–	–	–	–
NC[C@@H]1O[C@H](O[C@H]2[C@@H](O)[C@H](O[C@@H]3[C@@H](O)[C@H](N)C[C@H](N)[C@H]3O[C@H]3O[C@H](CNCCCc4ccccc4)[C@@H](O)[C@H](O)[C@H]3N)O[C@@H]2CO)[C@H](N)[C@@H](O)[C@@H]1O [IBIS00561932]	0.6 to 1.2	0.31 to 0.62	–	–	–	–	–	–
NC[C@@H]1O[C@H](O[C@H]2[C@@H](O)[C@H](O[C@@H]3[C@@H](O)[C@H](N)C[C@H](N)[C@H]3O[C@H]3O[C@H](CNN)[C@@H](O)[C@H](O)[C@H]3N)O[C@@H]2CO)[C@H](N)[C@@H](O)[C@@H]1O [IBIS00560187]	12 to 25	3 to 6	–	–	1660	564	235	–
NCC[C@H](O)C(=O)N[C@@H]1C[C@H](N)[C@@H](O[C@H]2O[C@H](CN)[C@@H](O)[C@H](O)[C@H]2O)[C@H](O)[C@H]1O[C@H]1O[C@H](CO)[C@@H](O)[C@H](N)[C@H]1O [Amikacin]	–	–	–	–	–	–	–	# Dead mice/Total mice in group ([2]; 0.5 mg/kg): 8/10 (10% Mucin); # Dead mice/Total mice in group ([2]; 1 mg/kg): 10/10 (10% Mucin); # Dead mice/Total mice in group ([2]; 2 mg/kg): 8/10 (10% Mucin)
CC(C)NC[C@H]1O[C@H](O[C@H]2[C@H](O[C@@H]3O[C@H](CO)[C@@H](O[C@H]4O[C@@H](CN)[C@@H](O)[C@H](O)[C@H]4N)[C@H]3O)[C@@H](O)[C@H](N)C[C@@H]2N)[C@H](N)[C@@H](O)[C@@H]1O [IBIS00561095]	2.5 to 5.0	1.25 to 2.5	–	–	1200	1180	202	–
NCCCCNC[C@H]1O[C@H](O[C@H]2[C@H](O[C@@H]3O[C@H](CO)[C@@H](O[C@H]4O[C@@H](CN)[C@@H](O)[C@H](O)[C@H]4N)[C@H]3O)[C@@H](O)[C@H](N)C[C@@H]2N)[C@H](N)[C@@H](O)[C@@H]1O [IBIS00561140]	–	–	2.5 to 5 (≈ 1.71 to 3.43 µg/mL)	10 to 20 (≈ 6.86 to 13.7 µg/mL)	6020	6260	32	–
NC[C@@H]1O[C@H](O[C@H]2[C@@H](O)[C@H](O[C@@H]3[C@@H](O)[C@H](N)C[C@H](N)[C@H]3O[C@H]3O[C@H](CNCCc4ccc(C(F)(F)F)cc4)[C@@H](O)[C@H](O)[C@H]3N)O[C@@H]2CO)[C@H](N)[C@@H](O)[C@@H]1O [IBIS00561942]	1.25 to 2.5	0.31 to 0.62	–	–	–	–	–	–
COc1cccc(CCNC[C@H]2O[C@H](O[C@H]3[C@H](O[C@@H]4O[C@H](CO)[C@@H](O[C@H]5O[C@@H](CN)[C@@H](O)[C@H](O)[C@H]5N)[C@H]4O)[C@@H](O)[C@H](N)C[C@@H]3N)[C@H](N)[C@@H](O)[C@@H]2O)c1 [IBIS00561934]	1.25 to 2.5	0.31 to 0.62	–	–	–	–	–	–
